Calls of active or inactive are those of the source. The calls are words filed in the database; no cut-off is given here.
Tests used:
Influenza A virus [1] = test: Antiviral activity against Influenza virus A H3N2 at 100 uM; format: functional, organism-based
Influenza B virus = test: Antiviral activity against Influenza virus B at 100 uM; format: functional, organism-based
[2] = test system: Mammalian orthoreovirus 1; test: Antiviral activity against Reovirus 1 at 100 uM; format: functional
Punta Toro virus = test: Antiviral activity against Punta Toro virus at 100 uM; format: functional, organism-based
[3] = test system: Human immunodeficiency virus 1; test: Antiviral activity against HIV1 3B infected in human MT4 cells at 100 uM preincubated with cells for 30 mins followed by HIV inoculation measured after 4 to 5 days by microscopic analysis; format: functional, organism-based
[4] = test system: Human immunodeficiency virus 1; test: Antiviral activity against HIV 1 NL4-3 infected in human MT4 cells at 100 uM preincubated with cells for 30 mins followed by HIV inoculation measured after 4 to 5 days by microscopic analysis; format: functional, organism-based
[5] = test system: Human immunodeficiency virus 2; test: Antiviral activity against HIV2 ROD infected in human MT4 cells at 100 uM preincubated with cells for 30 mins followed by HIV inoculation measured after 4 to 5 days by microscopic analysis; format: functional, organism-based; settings: ISOLATE ROD
L1210 = test: Cytostatic activity against mouse L1210 cells after 48 hrs by Coulter counter method; format: functional, cell-based; settings: L1210, 48 h
CCRF-CEM = test: Cytostatic activity against human CEM cells after 72 hrs by Coulter counter method; format: functional, cell-based
Sindbis virus = test: Antiviral activity against Sindbis virus at 100 uM; format: functional, organism-based
HeLa = test: Cytostatic activity against human HeLa cells after 72 hrs by Coulter counter method; format: functional, cell-based
Human alphaherpesvirus 1 [6] = test: Antiviral activity against Aciclovir-resistant thymidine kinase-deficient HSV-1 KOS at 100 uM; format: functional, organism-based
Human betaherpesvirus 5 [7] = test: Antiviral activity against Human cytomegalovirus AD169 at 100 uM; format: functional, organism-based
Human betaherpesvirus 5 [8] = test: Antiviral activity against Human cytomegalovirus Davis at 100 uM; format: functional, organism-based
[9] = test system: Vesicular stomatitis virus; test: Antiviral activity against VSV at 100 uM; format: functional, organism-based
Human alphaherpesvirus 1 [10] = test: Antiviral activity against HSV-1 KOS at 100 uM; format: functional, organism-based
Human alphaherpesvirus 2 [11] = test: Antiviral activity against HSV-2 lyons at 100 uM; format: functional, organism-based
Human alphaherpesvirus 2 [12] = test: Antiviral activity against HSV-2 G at 100 uM; format: functional, organism-based; settings: strain G
Human adenovirus 2 = test: Antiviral activity against Adenovirus 2 at 100 uM; format: functional, organism-based
[13] = test system: Respiratory syncytial virus; test: Antiviral activity against Respiratory syncytial virus long at 100 uM; format: functional, organism-based
Coxsackievirus B4 = test: Antiviral activity against Coxsackie B4 virus at 100 uM; format: functional, organism-based
Human respirovirus 3 = test: Antiviral activity against parainfluenza virus 3 at 100 uM; format: functional, organism-based
Influenza A virus [14] = test: Antiviral activity against Influenza virus A H1N1 at 100 uM; format: functional, organism-based
[15] = target: Adenosine receptor A3 (Homo sapiens) (UniProt P0DMS8); test: Agonist activity at adenosine A3 receptor (unknown origin) assessed as inhibition of forskolin-stimulated adenylyl cyclase activity at 10 uM; format: functional
Adenosine receptor A3 (Homo sapiens), sequence (P0DMS8 whole entry): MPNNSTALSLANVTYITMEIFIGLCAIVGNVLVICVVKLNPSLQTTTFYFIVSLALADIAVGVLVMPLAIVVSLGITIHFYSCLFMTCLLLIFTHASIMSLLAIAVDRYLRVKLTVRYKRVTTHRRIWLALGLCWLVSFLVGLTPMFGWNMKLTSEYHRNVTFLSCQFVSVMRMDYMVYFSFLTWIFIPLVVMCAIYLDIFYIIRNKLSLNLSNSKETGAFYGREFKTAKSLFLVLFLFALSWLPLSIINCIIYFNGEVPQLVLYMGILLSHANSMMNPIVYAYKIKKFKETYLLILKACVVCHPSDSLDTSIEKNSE

Human alphaherpesvirus 3 [16] = test: Antiviral activity against VZV Oka; format: functional, organism-based; settings: Human alphaherpesvirus 3, strain Oka vaccine
Human alphaherpesvirus 3 [17] = test: Antiviral activity against thymidine kinase deficient VZV 07-1; format: functional, organism-based; settings: Human alphaherpesvirus 3, 07-1
Vaccinia virus = test: Antiviral activity against Vaccinia virus Lederle; format: functional, organism-based; settings: Orthopoxvirus vaccinia

SMILES | Activity (Influenza A virus [1]) | Activity (Influenza B virus) | Activity [2] | Activity (Punta Toro virus) | Activity [3] | Activity [4] | Activity [5] | IC50 (L1210) [µM] | IC50 (CCRF-CEM) [µM] | Activity (Sindbis virus) | IC50 (HeLa) [µM] | Activity (Human alphaherpesvirus 1 [6]) | Activity (Human betaherpesvirus 5 [7]) | Activity (Human betaherpesvirus 5 [8]) | Activity [9] | Activity (Human alphaherpesvirus 1 [10]) | Activity (Human alphaherpesvirus 2 [11]) | Activity (Human alphaherpesvirus 2 [12]) | Activity (Human adenovirus 2) | Activity [13] | other results
C#C[C@@]1(O)[C@@H](CO)O[C@@H](n2cnc3c(OC)nc(Cl)nc32)[C@@H]1O | inactive | inactive | inactive | inactive | inactive | inactive | inactive | > 250 | 210 | inactive | 175 | inactive | inactive | inactive | inactive | inactive | inactive | inactive | inactive | inactive | Activity (Coxsackievirus B4): inactive; Activity (Human respirovirus 3): inactive; Activity (Influenza A virus [14]): inactive
C#C[C@@]1(O)[C@@H](CO)O[C@@H](n2cnc3c(NCc4cccc(Cl)c4)nc(Cl)nc32)[C@@H]1O | inactive | inactive | inactive | inactive | inactive | inactive | inactive | 50 | 22 | inactive | 43 | inactive | inactive | inactive | inactive | inactive | inactive | inactive | inactive | inactive | inhibition [15]: 48%; EC50 (Human alphaherpesvirus 3 [16]): 4.68 µM; EC50 (Human alphaherpesvirus 3 [17]): 4.68 µM; Activity (Coxsackievirus B4): inactive; Activity (Human respirovirus 3): inactive; Activity (Influenza A virus [14]): inactive
C#C[C@@]1(O)[C@@H](CO)O[C@@H](n2cnc3c(NC4CCCC4)nc(Cl)nc32)[C@@H]1O | inactive | inactive | inactive | inactive | inactive | inactive | inactive | 170 | 104 | inactive | 150 | inactive | inactive | inactive | inactive | inactive | inactive | inactive | inactive | inactive | inhibition [15]: 70%; Activity (Coxsackievirus B4): inactive; Activity (Human respirovirus 3): inactive; Activity (Influenza A virus [14]): inactive
C#C[C@@]1(O)[C@@H](CO)O[C@@H](n2cnc3c(N)ncnc32)[C@@H]1O | inactive | inactive | inactive | inactive | inactive | inactive | inactive | 0.73 | 0.61 | inactive | 0.29 | inactive | inactive | inactive | inactive | inactive | inactive | inactive | inactive | inactive | EC50 (Vaccinia virus): 0.35 µM; Activity (Coxsackievirus B4): inactive; Activity (Human respirovirus 3): inactive; Activity (Influenza A virus [14]): inactive
C#C[C@@]1(O)[C@@H](CO)O[C@@H](n2cnc3c(N)nc(Cl)nc32)[C@@H]1O | inactive | inactive | inactive | inactive | inactive | inactive | inactive | 167 | > 250 | inactive | > 250 | inactive | inactive | inactive | inactive | inactive | inactive | inactive | inactive | inactive | Activity (Coxsackievirus B4): inactive; Activity (Human respirovirus 3): inactive; Activity (Influenza A virus [14]): inactive
C#C[C@@]1(O)[C@@H](CO)O[C@@H](n2cnc3c(Cl)nc(N)nc32)[C@@H]1O | inactive | inactive | inactive | inactive | inactive | inactive | inactive | > 250 | > 250 | inactive | > 250 | inactive | inactive | inactive | inactive | inactive | inactive | inactive | inactive | inactive | EC50 (Vaccinia virus): 51 µM; Activity (Coxsackievirus B4): inactive; Activity (Human respirovirus 3): inactive; Activity (Influenza A virus [14]): inactive
C#C[C@@]1(O)[C@@H](CO)O[C@@H](n2cnc3c(OC)nc(N)nc32)[C@@H]1O | inactive | inactive | inactive | inactive | inactive | inactive | inactive | > 250 | > 250 | inactive | > 250 | inactive | inactive | inactive | inactive | inactive | inactive | inactive | inactive | inactive | Activity (Coxsackievirus B4): inactive; Activity (Human respirovirus 3): inactive; Activity (Influenza A virus [14]): inactive
C#C[C@@]1(O)[C@@H](CO)O[C@@H](n2cnc3c(N)nc(N)nc32)[C@@H]1O | inactive | inactive | inactive | inactive | inactive | inactive | inactive | 193 | ≥ 250 | inactive | 123 | inactive | inactive | inactive | inactive | inactive | inactive | inactive | inactive | inactive | Activity (Coxsackievirus B4): inactive; Activity (Human respirovirus 3): inactive; Activity (Influenza A virus [14]): inactive
C#C[C@@]1(O)[C@@H](CO)O[C@@H](n2cnc3c(OC)nc(OC)nc32)[C@@H]1O | inactive | inactive | inactive | inactive | inactive | inactive | inactive | > 250 | > 250 | inactive | > 250 | inactive | inactive | inactive | inactive | inactive | inactive | inactive | inactive | inactive | Activity (Coxsackievirus B4): inactive; Activity (Human respirovirus 3): inactive; Activity (Influenza A virus [14]): inactive

From ChEMBL document CHEMBL3785043, “Exploring the purine core of 3'-C-ethynyladenosine (EAdo) in search of novel nucleoside therapeutics” (Bioorg Med Chem Lett, 2016)
